Data: US20080069869A1, “Formulations and methods for modulating satiety” (priority 2004, published 2008)
Like-named read-outs stand apart in the source and are kept apart here. Values belong to the compound of their own block, whether it stands above or below them.

How the values were obtained:
[1] = cited from earlier work
[2] = Pharmacokinetic study: plasma CCK-8 levels after one oral enteric-coated capsule (Example 3); assay type: in vivo, human
Description: Secondarily, it was desired to ascertain the time it would take to reach peak plasma levels. Each individual ingested the capsule in the fasting state (not having eaten for at least 8 hours). Blood was then drawn every 10 minutes for one hour. […] Plasma was drawn off from each tube and frozen. The frozen plasma was sent to Mt. Sinai Hospital in Canada for measurement of CCK-8 levels.

[3] = in vivo; cited from earlier work
[4] = test system: pancreatic amylase secretion; conditions: Crawley and Corwin; cited from earlier work
CCKA receptors = molecular target: T1, CCKA receptors (Homo sapiens, UniProt P32238); conditions: de Montigny 1989; cited from earlier work
T1 sequence (P32238 1-428): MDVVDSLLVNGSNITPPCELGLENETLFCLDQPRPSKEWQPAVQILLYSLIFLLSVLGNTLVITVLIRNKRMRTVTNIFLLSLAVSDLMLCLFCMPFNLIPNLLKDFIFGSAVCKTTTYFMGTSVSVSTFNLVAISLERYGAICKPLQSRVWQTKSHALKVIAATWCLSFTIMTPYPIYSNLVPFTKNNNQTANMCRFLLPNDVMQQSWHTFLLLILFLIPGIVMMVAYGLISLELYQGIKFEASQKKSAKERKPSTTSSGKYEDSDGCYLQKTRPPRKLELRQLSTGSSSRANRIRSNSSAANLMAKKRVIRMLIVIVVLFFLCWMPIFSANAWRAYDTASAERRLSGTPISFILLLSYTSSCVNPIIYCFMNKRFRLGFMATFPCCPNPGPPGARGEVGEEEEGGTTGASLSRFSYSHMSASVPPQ

Compound: O[C@H](CS)[C@H](O)CS (racemic) [dithiothreitol]
increase in absorption and biliary recovery of a tripeptide over control rats ([1]; ileum): four-fold | increase in absorption and biliary recovery of a tripeptide over control rats ([1]; proximal colon): 70 fold

CCK-8 level (plasma) ([2]; Individual #1, 10 minutes post-ingestion, one enteric-coated capsule with 9.2 micrograms CCK-8 and an enzyme inhibitor, fasting): 3.268 picomoles/liter (pm/L) | CCK-8 level (plasma) ([2]; Individual #1, remaining 5 measurements (every 10 minutes up to one hour), 9.2 micrograms capsule with enzyme inhibitor): detected no CCK-8 | CCK-8 level (plasma) ([2]; Individual #2, 10 minutes post-ingestion, 9.2 micrograms capsule with enzyme inhibitor, fasting): 0.7625 pm/L | CCK-8 level (plasma) ([2]; Individual #2, 20 minutes, 9.2 micrograms capsule with enzyme inhibitor, fasting): 3.326 pm/L | CCK-8 level (plasma) ([2]; Individual #2, next 4 measurements (30-60 minutes)): detected no CCK-8 | CCK-8 level (plasma) ([2]; Individual #3 (BMI 24), 10 minutes post-ingestion, 9.2 micrograms capsule with enzyme inhibitor, fasting): 0.0 pm/L | CCK-8 level (plasma) ([2]; Individual #3 (BMI 24), 20 minutes, 9.2 micrograms capsule with enzyme inhibitor, fasting): 4.375 pm/L | CCK-8 level (plasma) ([2]; Individual #3, next 4 measurements (30-60 minutes)): detected no CCK-8
Compound: Asp-Tyr(SO3H)-Met-Gly-Trp-Met-Asp-Phe-NH2 [CCK-8]
oral bio-availability [3]: less than 1% | more potent than unsulfated CCK-8 or CCK-4 in stimulating pancreatic amylase secretion [4]: approximately 1000 fold

Compound: CCK-4: the tetrapeptide, CCK-4 (CCK30-33)
lower affinity for CCKA receptors than the sulfated form of CCK-8 (CCKA receptors): 10,000 fold
